US20090012148A1, “REDUCING CELLULAR CHOLESTEROL LEVELS AND/OR TREATING OR PREVENTING PHOSPHOLIPIDOSIS” (priority 2005, published 2009)

Columns and labels:
CT60 cells = test: DiI-LDL uptake; format: cell-based, Chinese hamster; details: DiI-LDL 6 μg/ml, compounds 10 μM, 20 hours, ±SEM
Protocol: CT60 cells were grown to 70% confluency in 96 well special optics plates (Corning, Inc., Corning, N.Y.). After 24 hours, cells were incubated with DiI-LDL (6 μg/ml) and hit compounds (10 μM) in screening medium supplemented with 20 mM HEPES. Each compound was added to 8 wells and an equivalent amount of DMSO with DiI-LDL was added to control wells. After 20 h, cells were washed three times with PBS, fixed with 1.5% PFA for 20 min, and stained with 50 μg/ml filipin for 45 min. Images were acquired using the Discovery-1 automatic fluorescence microscope at 20× magnification. DiI-LDL images were acquired using 535 nm/40 nm excitation filter and 610 nm/60 nm band pass with a Chroma 51001bs DiChroic filter. Filipin images were acquired as described above. Images were acquired for 4 sites per well, yielding 32 images per compound. The DiI-LDL images were background and shade corrected as described above. A low threshold was set to define the cell area based on filipin images. Finally, the average DiI-LDL intensity was measured per cell area.
Cells were incubated with DiI-LDL (6 μg/ml) in the presence of compounds (10 μM) for 20 hours. The intensity per unit cell area was measured as described in Methods. Values are normalized to the intensity per cell area for control (solvent-treated) cells. Values are based on averages from 32 images from 8 wells for each condition. ±SEM.

CT43 cells = test: Toxicity assay by cell count (Hoechst 33258); format: cell-based, Chinese hamster; details: 24 h
Protocol: To measure toxicity, we treated CT60 and CT43 cells with compounds at 5, 10 and 20 μM for 24 h. The cell number per well was compared to control cells treated with DMSO (FIG. 7). […] Compound 1-a-14 did cause a 50% reduction in cell number at 10 μM for CT60 and an 80% reduction for CT43 cells. Compounds 1-a-4, 5, 6, 8 and 13 were partially toxic as indicated by 20-30% reduction in cell number after 24 h at 10 μM. Procedure Using Cell Count Assay: Compounds were added to CT60 and CT43 cells plated in 384 well plates at 0 (DMSO solvent control), 5, 10 and 20 μM concentrations in quadruplicate using methods similar to the dose dependence assay, except that the cells were stained with Hoechst 33258 nuclear stain. The final DMSO concentration in each well was 0.2%. For the control cells an equivalent amount of DMSO was added to the cells. The cells were incubated for 24, 48 and 72 h. After each time period, cells were washed and then fixed with 1.5% PFA. After washing the cells three times with PBS, the nuclei of the cells were stained using 5 μg/ml Hoechst 33258 (25 mg/ml stock solution in DMSO) in PBS for 45 m at room temperature. Finally, cells were washed three times with PBS, and images were obtained using a Nikon 4× Plan Apo 0.2NA objective. For Hoechst imaging we used the same filter set as for filipin. We collected one 520×696 pixel image per well at 12 intensity bits per pixel. Each pixel is 3.125 by 3.125 μm in […] the object. Cells were counted by defining the standard area of single nuclei (˜200 μm^2) interactively for each plate using the Integrated Morphometry Analysis function of MetaMorph. The number of standard areas per object above a threshold was determined, and the total number of standard areas per image was used as the cell count. The percent reduction in the number of cells compared to DMSO control was calculated for each concentration and time.

| SMILES | DiI Intensity/cell area Fraction of control (CT60 cells) | reduction in cell number (CT43 cells; 10 μM) | reduction in the number of cells (CT43 cells; 20 μM) |
| --- | --- | --- | --- |
| C=CCN1C(=O)C(=Cc2cc(C)n(-c3ccccc3)c2C)C(C(=O)OC)=C1C [Compound 2-a-15] | 1.00 ± 0.01 Fraction of control |  |  |
| CCOc1cccc2cc(-c3csc(Nc4cccc(C(F)(F)F)c4)n3)c(=O)oc12 [Compound 1-a-14] |  | 80% |  |
| CCN(CC)c1ccc(C=C2SC(=S)N(c3ccc(OC)cc3)C2=O)cc1 [Compound 2-a-3] | 0.62 ± 0.01 Fraction of control |  |  |
| FC(F)(F)COc1nc(NN=Cc2cccc(I)c2)nc(N(c2ccccc2)c2ccccc2)n1 [Compound 2-a-12] | 0.72 ± 0.01 Fraction of control |  | 75% |
| O=[N+]([O-])c1cccc(C=NNc2nc(Nc3cccc4ccccc34)nc(N(c3ccccc3)c3ccccc3)n2)c1 [Compound 2-a-13] | 0.72 ± 0.01 Fraction of control |  |  |
| COc1ccccc1Nc1nc(Nc2ccccc2OC)nc(Nc2ccccc2OC)n1 [Compound 2-a-9] | 0.85 ± 0.01 Fraction of control |  |  |
